Source: patent publication US11542297B2, “Compositions and methods for treating CNS disorders” (Sage Therapeutics, Inc., priority 2014, dated 2023)

Molecular target: rat brain cortical membranes ([35S]-TBPS binding, GABA receptor complex)
Assay: Steroid inhibition of [35S]-TBPS binding
Settings: in the presence of 5 μM GABA, read-out: 35S-TBPS Radioligand Displacement (IC50)
Protocol: TBPS binding assays using rat brain cortical membranes in the presence of 5 μM GABA has been described (Gee et al, J. Pharmacol. Exp. Ther. 1987, 241, 346-353; Hawkinson et al, Mol. Pharmacol. 1994, 46, 977-985; Lewin, A. H et al., Mol. Pharmacol. 1989, 35, 189-194).
Briefly, cortices are rapidly removed following decapitation of carbon dioxide-anesthetized Sprague-Dawley rats (200-250 g). The cortices are homogenized in 10 volumes of […] using a glass/teflon homogenizer and centrifuged at 1500×g for 10 min at 4° C. The resultant supernatants are centrifuged at 10,000×g for 20 min at 4° C. to obtain the P2 pellets. The P2 pellets are resuspended in 200 mM NaCl/50 mM Na—K phosphate pH 7.4 buffer and centrifuged at 10,000×g for 10 min at 4° C. This washing procedure is repeated twice and the pellets are resuspended in 10 volumes of buffer. Aliquots (100 μL) of the membrane suspensions are incubated with 3 nM [^35S]-TBPS and 5 μL aliquots of test drug dissolved in dimethyl sulfoxide (DMSO) (final 0.5%) in the presence of 5 μM GABA. The incubation is brought to a final volume of 1.0 mL with buffer. […] Following a 90 min incubation at room temp, the assays are terminated by filtration through glass fiber filters (Schleicher and Schuell No. 32) using a cell harvester (Brandel) and rinsed three times with ice-cold buffer. Filter bound radioactivity is measured by liquid scintillation spectrometry. Non-linear curve fitting of the overall data for each drug averaged for each concentration is done using Prism (GraphPad).
Various compounds are or can be screened to determine their potential as modulators of [^35S]-TBPS binding in vitro. These assays are or can be performed in accordance with the above discussed procedures.

SMILES | IC50
C[C@H](C(=O)[C@H]1CC[C@H]2[C@@H]3CC[C@@H]4C[C@](C)(O)CC[C@]4(C)[C@H]3CC[C@]12C)n1ccnn1 [Compound 58, (R)-1-((3R,5R,8R,9S,10S,13S,14S,17S)-3-hydroxy-3,10,13-trimethylhexadecahydro-1H-cyclopenta[a]phenanthren-17-yl)-2-(1H-1,2,3-triazol-1-yl)propan-1-one] | > 500 nM
C[C@H](C(=O)[C@H]1CC[C@H]2[C@@H]3CC[C@H]4C[C@](C)(O)CC[C@]4(C)[C@H]3CC[C@]12C)n1cc(C#N)cn1 [Compound 80, 1-((R)-1-((3R,5S,8R,9S,10S,13S,14S,17S)-3-hydroxy-3,10,13-trimethylhexadecahydro-1H-cyclopenta[a]phenanthren-17-yl)-1-oxopropan-2-yl)-1H-pyrazole-4-carbonitrile] | 100 to 500 nM
CC(C(=O)[C@H]1CC[C@H]2[C@@H]3CC[C@H]4C[C@](C)(O)CC[C@]4(C)[C@H]3CC[C@]12C)N1CCOCC1 (stereo partly drawn) [Compound 155] | > 500 nM
C[C@H](C(=O)[C@H]1CC[C@H]2[C@@H]3CC[C@H]4C[C@](C)(O)CC[C@]4(C)[C@H]3CC[C@]12C)n1nnc2ccccc21 [Compound 100, (R)-2-(1H-benzo[d][1,2,3]triazol-1-yl)-1-((3R,5S,8R,9S,10S,13S,14S,17S)-3-hydroxy-3,10,13-trimethylhexadecahydro-1H-cyclopenta[a]phenanthren-17-yl)propan-1-one] | > 500 nM
C[C@@]1(O)CC[C@@]2(C)[C@H](CC[C@@H]3[C@@H]2CC[C@]2(C)[C@@H](C(=O)Cn4cc(C#N)cn4)CC[C@@H]32)C1 [Compound 10, 1-(2-((3R,5R,8R,9S,10S,13S,14S,17S)-3-hydroxy-3,10,13-trimethylhexadecahydro-1H-cyclopenta[a]phenanthren-17-yl)-2-oxoethyl)-1H-pyrazole-4-carbonitrile] | < 10 nM
C[C@@]1(O)CC[C@@]2(C)[C@H](CC[C@@H]3[C@@H]2CC[C@]2(C)[C@@H](C(=O)Cn4nc5ccc(S(C)(=O)=O)cc5n4)CC[C@@H]32)C1 [Compound 104, 1-((3R,5R,8R,9S,10S,13S,14S,17S)-3-hydroxy-3,10,13-trimethylhexadecahydro-1H-cyclopenta[a]phenanthren-17-yl)-2-(5-(methylsulfonyl)-2H-benzo[d][1,2,3]triazol-2-yl)ethanone] | < 10 nM
C[C@@H](C(=O)[C@H]1CC[C@H]2[C@@H]3CC[C@@H]4C[C@](C)(O)CC[C@]4(C)[C@H]3CC[C@]12C)n1nc2ccccc2n1 [Compound 61, (S)-2-(2H-benzo[d][1,2,3]triazol-2-yl)-1-((3R,5R,8R,9S,10S,13S,14S, 17S)-3-hydroxy-3,10,13-trimethylhexadecahydro-1H-cyclopenta[a]phenanthren-17-yl)propan-1-one] | 100 to 500 nM
C[C@@H](C(=O)[C@H]1CC[C@H]2[C@@H]3CC[C@H]4C[C@](C)(O)CC[C@]4(C)[C@H]3CC[C@]12C)n1cc(C#N)cn1 [Compound 81, 1-((S)-1-((3R,5S,8R,9S,10S,13S,14S,17S)-3-hydroxy-3,10,13-trimethylhexadecahydro-1H-cyclopenta[a]phenanthren-17-yl)-1-oxopropan-2-yl)-1H-pyrazole-4-carbonitrile] | 10 to 50 nM
C[C@@H](C(=O)[C@H]1CC[C@H]2[C@@H]3CC[C@@H]4C[C@](C)(O)CC[C@]4(C)[C@H]3CC[C@]12C)n1nnc2ccccc21 [Compound 63, (S)-2-(1H-benzo[d][1,2,3]triazol-1-yl)-1-((3R,5R,8R,9S,10S,13S,14S,17S)-3-hydroxy-3,10,13-trimethylhexadecahydro-1H-cyclopenta[a]phenanthren-17-yl)propan-1-one] | 10 to 50 nM
C[C@H](C(=O)[C@H]1CC[C@H]2[C@@H]3CC[C@@H]4C[C@](C)(O)CC[C@]4(C)[C@H]3CC[C@]12C)n1nccn1 [Compound 56, (R)-1-((3R,5R,8R,9S,10S,13S,14S,17S)-3-hydroxyl-3,10,13-trimethylhexadecahydro-1H-cyclopenta[a]phenanthren-17-yl)-2-(2H-1,2,3-triazol-2-yl)propan-1-one] | 50 to 100 nM
C[C@H](C(=O)[C@H]1CC[C@H]2[C@@H]3CC[C@H]4C[C@](C)(O)CC[C@]4(C)[C@H]3CC[C@]12C)n1nccn1 [Compound 90, (R)-1-((3R,5S,8R,9S,10S,13S,14S,17S)-3-hydroxy-3,10,13-trimethylhexadecahydro-1H-cyclopenta[a]phenanthren-17-yl)-2-(2H-1,2,3-triazol-2-yl)propan-1-one] | > 500 nM
C[C@@]1(O)CC[C@@]2(C)[C@@H](CC[C@@H]3[C@@H]2CC[C@]2(C)[C@@H](C(=O)Cn4nc5cccc(F)c5n4)CC[C@@H]32)C1 [Compound 246] | < 10 nM
CSc1ccc2nnn(CC(=O)[C@H]3CC[C@H]4[C@@H]5CC[C@H]6C[C@](C)(O)CC[C@]6(C)[C@H]5CC[C@]34C)c2c1 [Compound 248] | < 10 nM
CC(C)(C(=O)[C@H]1CC[C@H]2[C@@H]3CC[C@H]4C[C@](C)(O)CC[C@]4(C)[C@H]3CC[C@]12C)n1nnc2ccccc21 [Compound 102, 2-(1H-benzo[d][1,2,3]triazol-1-yl)-1-((3R,5S,8R,9S,10S,13S,14S,17S)-3-hydroxy-3,10,13-trimethylhexadecahydro-1H-cyclopenta[a]phenanthren-17-yl)-2-methylpropan-1-one] | > 500 nM
C[C@H](C(=O)[C@H]1CC[C@H]2[C@@H]3CC[C@H]4C[C@](C)(O)CC[C@]4(C)[C@H]3CC[C@]12C)n1ccnn1 [Compound 92, (R)-1-((3R,5S,8R,9S,10S,13S,14S,17S)-3-hydroxy-3,10,13-trimethylhexadecahydro-1H-cyclopenta[a]phenanthren-17-yl)-2-(1H-1,2,3-triazol-1-yl)propan-1-one] | > 500 nM
CN(C)C(=O)c1cnn(CC(=O)[C@H]2CC[C@H]3[C@@H]4CC[C@H]5C[C@](C)(O)CC[C@]5(C)[C@H]4CC[C@]23C)c1 [Compound 86] | < 10 nM

Molecular target: α1β2γ2 GABAA receptors (Homo sapiens (Human), UniProt P14867+P47870)
Assay: Patch clamp electrophysiology of recombinant α1β2γ2 GABAA receptors (Qpatch in Ltk cells)
Format: cell-based
Settings: 10 μM test article, potentiation of GABA EC20 (2 μM) current
Protocol: Cellular electrophysiology is used to measure the pharmacological properties of our GABAA receptor modulators in heterologous cell systems. […] LTK cells are stably transfected with the α1β2γ2 subunits of the GABA receptor and CHO cells are transiently transfected with the α4β3δ subunits via the Lipofecatamine method. Cells were passaged at a confluence of about 50-80% and then seeded onto 35 mm sterile culture dishes containing 2 ml culture complete medium without antibiotics or antimycotics. Confluent clusters of cells are electrically coupled (Pritchett et al., Science, 1988, 242, 1306-1308).
Whole cell currents were measured with HEKA EPC-10 amplifiers using PatchMaster software or by using the high throughput QPatch platform (Sophion). […] In some cases 0.005% cremophor was also added. Intracellular (pipette) solution contained: KCl 130 mM, MgCl2 1 mM, Mg-ATP 5 mM, HEPES 10 mM, EGTA 5 mM, pH 7.2. […] For manual patch clamp recordings, cell culture dishes were placed on the dish holder of the microscope and continuously perfused (1 ml/min) with bath solution. […] For experiments using the QPatch system, cells were transferred as suspension to the QPatch system in the bath solution and automated whole cell recordings were performed.
Cells were voltage clamped at a holding potential of −80 mV. […]

SMILES | GABA (α1β2γ2) Qpatch in Ltk, % efficacy at 10 μM
C[C@@]1(O)CC[C@@]2(C)[C@@H](CC[C@@H]3[C@@H]2CC[C@]2(C)[C@@H](C(=O)Cn4nnc5ccc(Cl)c(F)c54)CC[C@@H]32)C1 [Compound 113] | B (“B” >100-500)

Same assay, conditions: 10 μM test article, potentiation of GABA EC20 (2 μM) current, read-out: GABA (α1β2γ2) Qpatch in Ltk, % efficacy at 10 μM

SMILES | Emax at 10 µM
C[C@@]1(O)CC[C@@]2(C)[C@H](CC[C@@H]3[C@@H]2CC[C@]2(C)[C@@H](C(=O)Cn4nc5ccc(OC(F)(F)F)cc5n4)CC[C@@H]32)C1 [Compound 106] | 100 to 500%
